Results: ChEMBL document CHEMBL2390865, “Discovery of aryl ureas and aryl amides as potent and selective histamine H3 receptor antagonists for the treatment of obesity (part II)” (Bioorg Med Chem Lett, 2013)
Converted amounts (≈) assume the structure as drawn. The source made the active and inactive calls. The rule behind the calls is not given here.

Experiments:
Histamine H3 receptor [1] = target: Histamine H3 receptor (Rattus norvegicus, UniProt Q9QYN8); assay: Displacement of [3H]N-alpha-methylhistamine from rat histamine H3 receptor
Chain of Histamine H3 receptor (Rattus norvegicus, UniProt Q9QYN8) (Q9QYN8 whole entry): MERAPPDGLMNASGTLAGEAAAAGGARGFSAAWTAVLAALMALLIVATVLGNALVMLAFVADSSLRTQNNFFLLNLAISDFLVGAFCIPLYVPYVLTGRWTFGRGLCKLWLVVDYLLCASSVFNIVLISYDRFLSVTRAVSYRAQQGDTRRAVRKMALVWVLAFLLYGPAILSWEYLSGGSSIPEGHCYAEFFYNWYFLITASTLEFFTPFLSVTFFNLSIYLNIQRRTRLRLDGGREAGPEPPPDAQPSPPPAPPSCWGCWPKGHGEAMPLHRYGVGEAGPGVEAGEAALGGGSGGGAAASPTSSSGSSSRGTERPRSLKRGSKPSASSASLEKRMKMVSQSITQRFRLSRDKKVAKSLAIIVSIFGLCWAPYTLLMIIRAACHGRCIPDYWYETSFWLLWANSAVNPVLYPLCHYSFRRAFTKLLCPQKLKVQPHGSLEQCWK

[2] = target: Voltage-gated inwardly rectifying potassium channel KCNH2 (Homo sapiens, UniProt Q12809); assay: Inhibition of human ERG channel
Chain of Voltage-gated inwardly rectifying potassium channel KCNH2 (Q12809 whole entry): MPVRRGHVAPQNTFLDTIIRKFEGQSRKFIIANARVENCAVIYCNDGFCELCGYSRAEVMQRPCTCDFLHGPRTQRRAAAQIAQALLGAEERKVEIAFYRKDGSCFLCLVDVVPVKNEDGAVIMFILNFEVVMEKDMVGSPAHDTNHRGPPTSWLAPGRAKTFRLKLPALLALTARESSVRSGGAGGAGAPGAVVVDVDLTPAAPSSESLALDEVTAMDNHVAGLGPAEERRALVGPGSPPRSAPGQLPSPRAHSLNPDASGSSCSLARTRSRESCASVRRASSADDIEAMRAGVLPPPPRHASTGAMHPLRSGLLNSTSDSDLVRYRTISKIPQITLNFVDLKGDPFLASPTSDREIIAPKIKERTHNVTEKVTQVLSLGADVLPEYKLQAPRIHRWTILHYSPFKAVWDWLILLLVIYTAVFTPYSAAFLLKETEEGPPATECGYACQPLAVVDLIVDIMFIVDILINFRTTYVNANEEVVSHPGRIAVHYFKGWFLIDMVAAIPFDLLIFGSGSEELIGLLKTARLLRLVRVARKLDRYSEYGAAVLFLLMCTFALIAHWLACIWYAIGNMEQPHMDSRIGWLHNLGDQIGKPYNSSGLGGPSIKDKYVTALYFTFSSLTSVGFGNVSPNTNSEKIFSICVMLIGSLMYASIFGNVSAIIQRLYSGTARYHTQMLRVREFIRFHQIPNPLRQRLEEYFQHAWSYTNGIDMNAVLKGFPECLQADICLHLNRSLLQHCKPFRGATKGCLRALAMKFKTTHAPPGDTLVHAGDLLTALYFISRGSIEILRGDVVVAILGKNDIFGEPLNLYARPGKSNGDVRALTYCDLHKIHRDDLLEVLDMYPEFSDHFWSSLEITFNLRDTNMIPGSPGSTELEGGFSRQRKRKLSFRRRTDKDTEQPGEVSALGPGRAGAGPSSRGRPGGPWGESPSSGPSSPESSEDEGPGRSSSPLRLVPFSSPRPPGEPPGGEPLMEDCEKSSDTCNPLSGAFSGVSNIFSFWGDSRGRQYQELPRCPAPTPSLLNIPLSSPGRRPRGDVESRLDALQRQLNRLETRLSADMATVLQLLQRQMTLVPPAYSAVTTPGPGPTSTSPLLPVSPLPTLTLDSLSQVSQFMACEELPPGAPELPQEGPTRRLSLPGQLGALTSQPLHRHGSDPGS

[3] = Antagonist activity at rhesus monkey histamine H3 receptor by GTPgammaS binding assay; set-up: species or system Macaca mulatta
[4] = Drug metabolism in rat liver microsomes; type: ADME, Microsome; conditions: read-out: Drug metabolism
[5] = Apparent permeability across human Caco2/TC7 cells; type: ADME, cell-based; conditions: Caco-2
[6] = Drug metabolism in human liver microsomes; type: ADME, Microsome; conditions: read-out: Drug metabolism
[7] = target: Histamine H2 receptor (Homo sapiens) (UniProt P25021); assay: Binding affinity to human histamine H2 receptor
Chain of Histamine H2 receptor (Homo sapiens) (P25021 whole entry): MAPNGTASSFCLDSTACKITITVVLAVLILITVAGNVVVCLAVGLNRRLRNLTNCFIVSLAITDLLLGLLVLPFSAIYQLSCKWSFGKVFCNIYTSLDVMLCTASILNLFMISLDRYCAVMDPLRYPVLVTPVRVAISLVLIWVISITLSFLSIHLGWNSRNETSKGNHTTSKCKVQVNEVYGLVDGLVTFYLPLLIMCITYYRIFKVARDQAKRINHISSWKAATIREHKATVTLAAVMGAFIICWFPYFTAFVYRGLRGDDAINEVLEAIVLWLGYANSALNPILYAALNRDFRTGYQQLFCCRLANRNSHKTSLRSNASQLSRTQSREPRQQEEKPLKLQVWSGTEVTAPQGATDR

Histamine H1 receptor = Histamine H1 receptor (Homo sapiens, UniProt P35367); assay: Binding affinity to human histamine H1 receptor
Chain of Histamine H1 receptor (P35367 whole entry): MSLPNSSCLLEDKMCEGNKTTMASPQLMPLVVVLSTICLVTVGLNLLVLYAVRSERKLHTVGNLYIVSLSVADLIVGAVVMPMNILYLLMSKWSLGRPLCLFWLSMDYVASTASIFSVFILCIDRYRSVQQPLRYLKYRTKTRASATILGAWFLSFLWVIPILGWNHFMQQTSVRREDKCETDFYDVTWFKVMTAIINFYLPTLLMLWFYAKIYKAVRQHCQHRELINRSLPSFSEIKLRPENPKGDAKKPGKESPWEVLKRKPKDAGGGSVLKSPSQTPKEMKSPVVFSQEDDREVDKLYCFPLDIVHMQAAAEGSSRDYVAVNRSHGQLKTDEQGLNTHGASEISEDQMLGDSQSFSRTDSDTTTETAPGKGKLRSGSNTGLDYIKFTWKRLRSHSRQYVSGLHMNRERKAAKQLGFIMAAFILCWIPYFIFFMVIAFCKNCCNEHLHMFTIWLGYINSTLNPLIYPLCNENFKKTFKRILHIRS

Histamine H3 receptor [8] = target: T1, Histamine H3 receptor (Homo sapiens, UniProt Q9Y5N1); assay: Displacement of [3H]N-alpha-methylhistamine from human histamine H3 receptor
T1 sequence (Q9Y5N1 whole entry): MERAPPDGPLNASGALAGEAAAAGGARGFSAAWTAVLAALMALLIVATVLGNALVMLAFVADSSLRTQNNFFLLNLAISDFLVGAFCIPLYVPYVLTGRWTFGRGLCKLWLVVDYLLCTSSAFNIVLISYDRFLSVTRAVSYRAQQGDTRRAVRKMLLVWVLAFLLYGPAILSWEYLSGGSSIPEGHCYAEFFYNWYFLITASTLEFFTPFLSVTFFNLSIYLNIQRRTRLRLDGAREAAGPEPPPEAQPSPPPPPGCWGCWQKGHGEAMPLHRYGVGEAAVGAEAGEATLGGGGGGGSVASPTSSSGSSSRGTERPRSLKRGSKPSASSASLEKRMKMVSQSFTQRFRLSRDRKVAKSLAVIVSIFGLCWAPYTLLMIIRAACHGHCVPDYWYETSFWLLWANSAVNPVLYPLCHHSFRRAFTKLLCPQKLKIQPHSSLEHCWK

[9] = Displacement of [3H]N-alpha-methylhistamine from rhesus monkey histamine H3 receptor transfected in CHO cells; type: cell-based, Macaca mulatta
[10] = Drug metabolism in mouse liver microsomes; type: ADME, Microsome; conditions: read-out: Drug metabolism
Mus musculus [11] = assay: Antiobesity activity in diet-induced obese mouse assessed as reduction in accumulated food intake at 1 to 3 mg/kg, po after 4 hrs (reference value: -4.7 %); type: functional; set-up: scale not given: the % may be the effect or the level left; conditions: dose mg/kg 1-3
[12] = Solubility of the compound; type: physicochemical
Mus musculus [13] = assay: Antiobesity activity in po dosed diet-induced obese mouse assessed as reduction in accumulated food intake after 4 to 12 hrs; type: functional, organism-based
Mus musculus [14] = assay: Antiobesity activity in diet-induced obese mouse assessed as reduction in accumulated food intake at 1 to 3 mg/kg, po after 12 hrs (reference value: 27.3 %); type: functional; set-up: scale not given: the % may be the effect or the level left; conditions: dose mg/kg 1-3
Mus musculus [15] = assay: Antiobesity activity in diet-induced obese mouse assessed as reduction in accumulated food intake at 1 to 3 mg/kg, po after 6 hrs (reference value: 0.1 %); type: functional; set-up: scale not given: the % may be the effect or the level left; conditions: dose mg/kg 1-3
Histamine H3 receptor [16] = target: T1, Histamine H3 receptor; assay: Antagonist activity at human histamine H3 receptor at 10 uM by GTPgammaS binding assay; type: functional
Histamine H3 receptor [17] = target: T1, Histamine H3 receptor; assay: Antagonist activity at human histamine H3 receptor by FLIPR assay
hERG (KCNH2) [18] = target: T2, hERG (KCNH2) (Homo sapiens, UniProt Q12809); assay: Inhibition of human ERG channel at 10 uM
T2 sequence (Q12809 whole entry): as the sequence (Q12809 whole entry) above

hERG (KCNH2) [19] = target: T2, hERG (KCNH2); assay: Inhibition of human ERG channel at 1 uM

Cc1cc(N2CCC(N3CCCC3C)C2)ccc1NC(=O)c1ccccc1F (stereo unspecified)
Ki (Histamine H3 receptor [1]): 0.0554 µM | IC50 [2]: 1 µM | EC50 [3]: 0.0029 µM | metabolised [4]: 28% | Papp [5]: 92.4 nm/s | metabolised [6]: 15% | Activity [7]: inactive | Ki (Histamine H1 receptor): > 9.3 µM | Ki (Histamine H3 receptor [8]): 0.0138 µM | Ki [9]: 0.0058 µM

CC1CCCN1C1CCN(c2ccc(NC(=O)c3cccc(F)c3)cc2)C1 (stereo unspecified)
Ki [9]: 0.0106 µM

CC1CCCN1C1CCN(c2ccc(NC(=O)c3ccccc3F)cc2)C1 (stereo unspecified)
metabolised [4]: 48% | metabolised [6]: 12% | metabolised [10]: 31% | Ki [9]: 0.0082 µM

COc1ccc(C(=O)Nc2ccc(N3CCC(N4CCCC4C)C3)cc2)cc1 (stereo unspecified)
Ki [9]: 0.0176 µM

Cc1cc(N2CCC(N3CCCC3C)C2)ccc1NC(=O)c1ccc(-c2ccccn2)cc1 (stereo unspecified)
Ki [9]: 0.0122 µM

Cc1cc(N2CCC(N3CCCC3C)C2)ccc1NC(=O)c1ccc(S(C)(=O)=O)cc1 (stereo unspecified)
Ki [9]: 0.0256 µM

Cc1cc(NC(=O)c2c(C)noc2C)ccc1N1CCC(N2CCCC2C)C1 (stereo unspecified)
Ki [9]: 0.0032 µM

Cc1cc(N2CC3CC4CCCN4C3C2)ccc1NC(=O)c1cc(F)ccc1C (stereo unspecified)
Ki [9]: 0.908 µM

CC1CCCN1C1CCN(c2ccc(NC(=O)c3cccc(F)c3)c(C(F)(F)F)c2)C1 (stereo unspecified)
Ki [9]: 0.04 µM

Cc1cc(N2CCC(CN3CCCC3C)C2)ccc1NC(=O)c1ccc2[nH]ccc2c1 (stereo unspecified)
Ki [9]: 0.045 µM

Cc1cc(NC(=O)c2cn[nH]c2)ccc1N1CCC(N2CCCC2C)C1 (stereo unspecified)
Ki [9]: 0.126 µM

Cc1cc(N2CCC(N3CCCC3C)C2)ccc1NC(=O)c1cccc(F)c1 (stereo unspecified)
Ki [9]: 0.0121 µM

Cc1cc(N2CCC(N3CCCC3C)C2)ccc1NC(=O)c1ccc(-c2cccnc2)cc1 (stereo unspecified)
Ki [9]: 0.0188 µM

Cc1cc(N2CCC(N3CCCC3C)C2)ccc1NC(=O)c1cc(F)ccc1C (stereo unspecified)
Ki (Histamine H3 receptor [1]): 0.0165 µM | IC50 [2]: 0.48 µM | Activity (Mus musculus [11]): 59.8% | EC50 [3]: 0.0011 µM | metabolised [4]: 38% | Papp [5]: 91.9 nm/s | metabolised [6]: 5% | Activity [7]: inactive | Ki (Histamine H1 receptor): > 9.3 µM | Ki (Histamine H3 receptor [8]): 0.0086 µM | Ki [9]: 0.0012 µM | solubility [12]: 2.67 mg/mL (≈ 6.75 mM) | Activity (Mus musculus [13]): Dose-dependent effect | Activity (Mus musculus [14]): 30.4% | Activity (Mus musculus [15]): 39.6%

Cc1cc(N2CCC(N3CCCC3C)C2)ccc1NC(=O)c1c(C)noc1C (stereo unspecified)
Ki [9]: 0.0026 µM

Cc1cc(N2CCC(CN3CCCC3C)C2)ccc1NC(=O)c1ccc(C)c(S(C)(=O)=O)c1 (stereo unspecified)
Ki [9]: 0.029 µM

CC1CCCN1C1CCN(c2ccc(NC(=O)c3cc(Cl)cc(Cl)c3)cc2)C1 (stereo unspecified)
inhibition (Histamine H3 receptor [16]): 119% | Ki [9]: 0.0495 µM | IC50 (Histamine H3 receptor [17]): 0.00048 µM

Cc1cc(C(=O)Nc2ccc(N3CCC(N4CCCC4C)C3)cc2)n[nH]1 (stereo unspecified)
metabolised [4]: 37% | Papp [5]: 91.9 nm/s | metabolised [6]: 2% | metabolised [10]: 16% | Ki [9]: 0.0445 µM

Cc1cc(C)n(-c2ccc(C(=O)Nc3ccc(N4CCC(N5CCCC5C)C4)cc3C)cc2)n1 (stereo unspecified)
metabolised [4]: 79% | metabolised [6]: 87% | metabolised [10]: 89% | Ki [9]: 0.0043 µM

Cc1cc(N2CCC(N3CCCC3C)C2)ccc1NC(=O)c1ccc2cc[nH]c2c1 (stereo unspecified)
metabolised [4]: 64% | Papp [5]: 78.1 nm/s | metabolised [6]: 16% | metabolised [10]: 21% | Ki [9]: 0.0151 µM

Cc1cc(N2CCC(N3CCCC3C)C2)ccc1NC(=O)c1ccc(Oc2nccs2)cc1 (stereo unspecified)
Ki [9]: 0.024 µM

Cc1cc(N2CCC(N3CCCC3C)C2)ccc1NC(=O)c1ccc(N2CCOCC2)cc1 (stereo unspecified)
Ki [9]: 0.044 µM

CC1CCCN1C1CCN(c2ccc(NC(=O)c3cccc(N(C)C)c3)cc2)C1 (stereo unspecified)
Ki [9]: 0.0333 µM

Cc1cc(N2CCC(N3CCCC3C)C2)ccc1NC(=O)c1ccc(-n2cccn2)cc1 (stereo unspecified)
Ki [9]: 0.0391 µM

Cc1cc(N2CCC(N3CCCC3C)C2)ccc1NC(=O)c1ccc(Oc2ccccn2)cc1 (stereo unspecified)
Ki [9]: 0.0228 µM

CC1CCCN1C1CCN(c2ccc(NC(=O)c3ccc(Cl)cc3)cc2)C1 (stereo unspecified)
inhibition at 10 µM (hERG (KCNH2) [18]): 95% | metabolised [4]: 90% | metabolised [6]: 20% | metabolised [10]: 43% | inhibition at 1 µM (hERG (KCNH2) [19]): 19.9% | Ki [9]: 0.0047 µM

Cc1cc(N2CCC(CN3CCCC3C)C2)ccc1NC(=O)c1ccc(-n2cccc2)cc1 (stereo unspecified)
Ki [9]: 0.0031 µM

Cc1cc(N2CCC(N3CCCC3C)C2)ccc1NC(=O)c1ccc(CO)cc1 (stereo unspecified)
Ki [9]: 0.0127 µM

Cc1cc(N2CCC(N3CCCC3C)C2)ccc1NC(=O)c1cccnc1 (stereo unspecified)
metabolised [4]: 57% | metabolised [6]: 9% | metabolised [10]: 30% | Ki [9]: 0.0101 µM

Cc1cc(N2CCC(N3CCCC3C)C2)ccc1NC(=O)c1ccc2[nH]ccc2c1 (stereo unspecified)
Ki [9]: 0.0304 µM

Cc1cc(NC(=O)c2ccc(Cl)cc2)ccc1N1CCC(N2CCCC2C)C1 (stereo unspecified)
metabolised [4]: 90% | metabolised [6]: 29% | metabolised [10]: 43% | Ki [9]: 0.0048 µM

Cc1ccc(F)cc1C(=O)Nc1ccc(N2CCC(N3CCCC3C)C2)cc1 (stereo unspecified)
Ki [9]: 0.0047 µM

Cc1noc(C)c1C(=O)Nc1ccc(N2CCC(N3CCCC3C)C2)cc1 (stereo unspecified)
metabolised [4]: 24% | metabolised [6]: 13% | metabolised [10]: 12% | Ki [9]: 0.0021 µM

Cc1cc(N2CCC(N3CCCC3C)C2)ccc1NC(=O)c1ccc(-c2ccncc2)cc1 (stereo unspecified)
Ki [9]: 0.0267 µM

CC1CCCN1C1CCN(c2ccc(NC(=O)c3ccccc3N(C)C)cc2)C1 (stereo unspecified)
Ki [9]: 0.0138 µM

Cc1cc(N2CCC(CN3CCCC3C)C2)ccc1NC(=O)c1ccc(CO)cc1 (stereo unspecified)
Ki [9]: 0.0621 µM

Cc1cc(N2CCC(N3CCCC3C)C2)ccc1NC(=O)c1ccc(Cl)cc1 (stereo unspecified)
metabolised [4]: 33% | metabolised [6]: 32% | metabolised [10]: 22% | Ki [9]: 0.0026 µM

CC1CCCN1C1CCN(c2ccc(NC(=O)c3ccc(N(C)C)cc3)cc2)C1 (stereo unspecified)
Ki [9]: 0.0335 µM

Cc1cc(N2CCC(N3CCCC3C)C2)ccc1NC(=O)c1cc(Cl)cc(Cl)c1 (stereo unspecified)
Ki [9]: 0.0241 µM

Cc1cc(N2CCC(N3CCCC3C)C2)ccc1NC(=O)c1cn[nH]c1 (stereo unspecified)
metabolised [4]: 28% | Papp [5]: 3.5 nm/s | metabolised [6]: 2% | metabolised [10]: 16% | Ki [9]: 0.0247 µM

CC1CCCN1C1CCN(c2ccc(NC(=O)c3cn[nH]c3)cc2)C1 (stereo unspecified)
Ki [9]: 0.0221 µM

Cc1cc(N2CCC(N3CCCC3C)C2)ccc1NC(=O)c1ccc(C)c(S(C)(=O)=O)c1 (stereo unspecified)
Ki [9]: 0.0119 µM

Cc1cc(N2CCC(N3CCCC3C)C2)ccc1NC(=O)c1ccc(C#N)cc1 (stereo unspecified)
Ki [9]: 0.0113 µM

Cc1cc(N2CCC(N3CCCC3C)C2)ccc1NC(=O)c1ccc(-n2cncn2)cc1 (stereo unspecified)
Ki [9]: 0.0081 µM

Cc1cc(N2CCC(CN3CCCC3C)C2)ccc1NC(=O)c1ccc2cc[nH]c2c1 (stereo unspecified)
Ki [9]: 0.018 µM

Cc1ccc(F)cc1C(=O)Nc1ccc(N2CCC(N3CCCC3C)C2)cc1C(F)(F)F (stereo unspecified)
Ki [9]: 0.004 µM

Cc1cc(N2CCC(N3CCCC3C)C2)ccc1NC(=O)c1cc2ccccc2[nH]1 (stereo unspecified)
Ki [9]: 0.0711 µM

Cc1cc(NC(=O)c2cccs2)ccc1N1CCC(N2CCCC2C)C1 (stereo unspecified)
Ki [9]: 0.0199 µM

Cc1cc(NC(=O)c2cc(Cl)cc(Cl)c2)ccc1N1CCC(N2CCCC2C)C1 (stereo unspecified)
Ki [9]: 0.054 µM

CC1CCCN1C1CCN(c2ccc(NC(=O)c3ccccc3F)c(C(F)(F)F)c2)C1 (stereo unspecified)
metabolised [4]: 45% | metabolised [6]: 14% | metabolised [10]: 44% | Ki [9]: 0.0169 µM

CC1CCCN1C1CCN(c2ccc(NC(=O)c3cccs3)cc2)C1 (stereo unspecified)
Ki [9]: 0.014 µM

CC1CCCN1C1CCN(c2ccc(NC(=O)c3ccc(CN4CCOCC4)cc3)cc2)C1 (stereo unspecified)
Ki [9]: 0.0702 µM

Cc1cc(N2CCC(N3CCCC3C)C2)ccc1NC(=O)c1cccs1 (stereo unspecified)
Ki [9]: 0.0124 µM
